Assay results taken from patent publication US11959083B2, “Immunosuppression-reverting oligonucleotides inhibiting the expression of CD39” (Secarna Pharmaceuticals GmbH & Co. KG, priority 2016, dated 2024).
l = locked nucleic acid (LNA); d = 2'-deoxy (DNA)

Key:
hCD39 mRNA [1] = test: hCD39 mRNA knockdown efficacy screen in A-172 cells (single dose, gymnotic delivery, QuantiGene Singleplex); assay type: cell-based, human; conditions: 10 μM, 3 days; for Relative hCD39 mRNA expression (compared to non-treated cells): second screening round; for Relative hCD39 mRNA expression (compared to non-treated cells) / Mean hCD39 mRNA expression (relative to untreated cells set as 1): normalized to HPRT1; for Mean hCD39 mRNA expression (relative to untreated cells set as 1): first screening round; for Residual hCD39 mRNA expression relative to untreated cells (set as 1): third screening round
Method: (§1) FIGS. 2A to 2D depict hCD39 mRNA knockdown efficacy of hCD39 antisense oligonucleotides in human cancer cell lines HDLM-2 (human Hodgkin Lymphoma) in a first and second screening round (FIGS. 2A-1 and 2A-2) and 2B-1 and 2B-2 and A-172 (human glioblastoma) in a first and second screening round (FIGS. 2C-1 and 2C-2) and 2D-1 and 2D-2. HDLM-2 and A-172 cells were treated for 3 days with 10 μM of the respective antisense oligonucleotide. As negative control, cells were treated with neg1, an antisense oligonucleotide having the sequence CGTTTAGGCTATGTACTT (SEQ ID NO:99) (described in WO2014154843 A1). Residual hCD39 mRNA expression relative to untreated cells is depicted. Expression values were normalized to expression of the housekeeping gene HPRT1. Depicted is the mean of triplicate wells+/−SD.
(§2) FIGS. 6A-6B depicts a third screening round where further antisense oligonucleotides were designed. These antisense oligonucleotides were based on efficient antisense oligonucleotides from the first and second screening round. Therefore, hCD39 antisense oligonucleotides were tested in human cancer cell lines HDLM-2 (human Hodgkin's lymphoma) (FIG. 6A) and A-172 (human glioblastoma) (FIG. 6B). HDLM-2 and A-172 cells were treated for 3 days with 10 μM of the respective antisense oligonucleotide. […] Residual hCD39 mRNA expression relative to untreated cells (set as 1) is depicted.
(§3) In order to analyze the efficacy of hCD39 antisense oligonucleotides of the present invention with regard to the knockdown of hCD39 mRNA expression in cancer cell lines, HDLM-2 (human Hodgkin Lymphoma, DSMZ) and A-172 (human glioblastoma, ATCC) cells were treated with a single dose (concentration: 10 μM without addition of any transfection reagent; this process is called gymnotic delivery) of the respective antisense oligonucleotide as shown in FIG. 2A to 2D. hCD39 and HPRT1 mRNA expression was analyzed three days later using the QuantiGene Singleplex assay (Affymetrix) and hCD39 expression values were normalized to HPRT1 values. […] Values of the mean normalized mRNA expression of hCD39 compared to non-treated cells are listed for A-172 (Table 4 for first screening round and Table 5 for second screening round) and HDLM-2 cells (Table 6 for first screening round and Table 7 for second screening round) in the following:
(§4) For a third screening round, new antisense oligonucleotides were designed. These antisense oligonucleotides were based on efficient antisense oligonucleotides from the first screening round with modifications in length, exact position on mRNA and chemical modification pattern. Therefore, hCD39 antisense oligonucleotides were tested in human cancer cell lines (FIG. 6A, Table 10) HDLM-2 (human Hodgkin's lymphoma) and (FIG. 6B, Table 11) A-172 (human glioblastoma). HDLM-2 and A-172 cells were treated for 3 days with 10 μM of the respective antisense oligonucleotide. […] Residual hCD39 mRNA expression relative to untreated cells (set as 1) is depicted.

hCD39 mRNA [2] = test: hCD39 mRNA knockdown efficacy screen in HDLM-2 cells (single dose, gymnotic delivery, QuantiGene Singleplex); assay type: cell-based, human; design: key to Relative hCD39 mRNA expression (compared to non-treated cells): *: values are below detection limit; conditions: 10 μM, 3 days; for Relative hCD39 mRNA expression (compared to non-treated cells): second screening round, normalized to HPRT1; for Mean hCD39 mRNA expression normalized to HPRT1 relative to untreated control = 1: first screening round; for Residual hCD39 mRNA expression relative to untreated cells (set as 1): third screening round
Method: as §1, §2, §3, §4

Substance	Relative hCD39 mRNA expression (compared to non-treated cells) (hCD39 mRNA [1])	Relative hCD39 mRNA expression (compared to non-treated cells) (hCD39 mRNA [2])	Mean hCD39 mRNA expression (relative to untreated cells set as 1) (hCD39 mRNA [1])	Mean hCD39 mRNA expression normalized to HPRT1 relative to untreated control = 1 (hCD39 mRNA [2])	Residual hCD39 mRNA expression relative to untreated cells (set as 1) (hCD39 mRNA [1])	Residual hCD39 mRNA expression relative to untreated cells (set as 1) (hCD39 mRNA [2])
+C*+T*+C*C*A*G*C*G*T*A*A*G*+A*+T (antisense CTCCAGCGTAAGAT; sugars from the 5' end l3 d9 l2, all phosphorothioate, methylation of C not given here) [A04002H]	0.96	0.53	–	–	–	–
+C*+T*+G*A*C*T*G*A*A*T*T*T*G*+C*+C*+C (antisense CTGACTGAATTTGCCC; sugars from the 5' end l3 d10 l3, all phosphorothioate, methylation of C not given here) [A04021H]	0.16	0.11	0.16	0.11	–	–
+C*C*T*A*C*C*C*A*G*G*A*T*A*G*+T*+C (antisense CCTACCCAGGATAGTC; sugars from the 5' end l1 d13 l2, all phosphorothioate, methylation of C not given here) [A04035H]	0.37	0.18	–	0.17	–	–
+C*T*+T*G*C*C*A*T*A*G*A*G*G*C*+G*A*+A (antisense CTTGCCATAGAGGCGAA; sugars from the 5' end ldldddddddddddldl, all phosphorothioate, methylation of C not given here) [A04041H]	0.24	*	0.46	0.18	–	–
+G*+A*+G*A*G*A*A*T*G*T*A*G*G*T*+A*C*+C (antisense GAGAGAATGTAGGTACC; sugars from the 5' end l3 d11 l1 d1 l1, all phosphorothioate, methylation of C not given here) [A04048H]	0.05	0.36	0.09	0.05	–	–
+G*+A*+G*G*C*G*A*A*A*T*T*G*C*A*+G*+A (antisense GAGGCGAAATTGCAGA; sugars from the 5' end l3 d11 l2, all phosphorothioate, methylation of C not given here) [A04024H]	0.45	0.15	0.45	0.15	–	–
+G*+A*C*T*A*T*G*C*T*G*A*A*C*+C*+A*+C (antisense GACTATGCTGAACCAC; sugars from the 5' end l2 d11 l3, all phosphorothioate, methylation of C not given here) [A04023H]	0.10	0.06	0.09	0.06	–	–
+G*+A*G*T*A*C*A*A*C*T*G*A*+A*+C*+C (antisense GAGTACAACTGAACC; sugars from the 5' end l2 d10 l3, all phosphorothioate, methylation of C not given here) [A04018H]	0.20	0.12	0.19	0.12	–	–
+G*+C*+C*C*C*A*A*A*A*T*C*C*C*C*+C*+T*+G (antisense GCCCCAAAATCCCCCTG; sugars from the 5' end l3 d11 l3, all phosphorothioate, methylation of C not given here) [A04047H]	0.43	*	–	–	–	–
+G*+C*+C*C*T*G*A*T*G*T*T*T*G*+A*+A*+T (antisense GCCCTGATGTTTGAAT; sugars from the 5' end l3 d10 l3, all phosphorothioate, methylation of C not given here) [A04054H]	–	–	–	–	0.60	0.13
+G*+C*+C*T*T*G*A*A*C*A*C*T*G*C*+G*+A (antisense GCCTTGAACACTGCGA; sugars from the 5' end l3 d11 l2, all phosphorothioate, methylation of C not given here) [A04032H]	0.10	0.01	0.19	0.06	–	–
+G*+C*C*A*T*A*G*G*C*A*C*C*+T*+T*+C (antisense GCCATAGGCACCTTC; sugars from the 5' end l2 d10 l3, all phosphorothioate, methylation of C not given here) [A04004H]	0.66	0.21	0.65	0.22	–	–
+G*+G*+A*C*A*A*T*G*G*T*T*G*C*+T*C*+A (antisense GGACAATGGTTGCTCA; sugars from the 5' end l3 d10 l1 d1 l1, all phosphorothioate, methylation of C not given here) [A04030H]	0.10	0.38	0.19	0.07	–	–
+G*+G*+C*G*A*A*A*T*T*G*C*+A*+G*+A (antisense GGCGAAATTGCAGA; sugars from the 5' end l3 d8 l3, all phosphorothioate, methylation of C not given here) [A04001H]	0.58	0.25	0.58	0.25	–	–
+G*G*+T*T*T*G*T*G*T*G*A*G*+A*G*+C (antisense GGTTTGTGTGAGAGC; sugars from the 5' end ldldddddddddldl, all phosphorothioate, methylation of C not given here) [A04062H]	–	–	–	–	0.17	0.01
+G*T*+C*A*A*T*C*C*T*G*C*T*C*A*+A*+C (antisense GTCAATCCTGCTCAAC; sugars from the 5' end l1 d1 l1 d11 l2, all phosphorothioate, methylation of C not given here) [A04038H]	0.29	*	0.56	0.20	–	–
+T*+A*+C*T*C*C*A*G*C*G*T*A*A*+G*+A*+T (antisense TACTCCAGCGTAAGAT; sugars from the 5' end l3 d10 l3, all phosphorothioate, methylation of C not given here) [A04027H]	0.58	0.24	0.58	0.24	–	–
+T*+A*+G*T*A*A*G*C*C*C*T*G*+A*+T*+G (antisense TAGTAAGCCCTGATG; sugars from the 5' end l3 d9 l3, all phosphorothioate, methylation of C not given here) [A04055H]	–	–	–	–	0.52	0.03
